Experimental data published in patent publication US20250042861A1, “TETRAHYDROPYRIDAZINES, COMPOSITIONS COMPRISING THEM AND USES THEREOF” (Novo Nordisk A/S, priority 2021, published 2025).

What was measured:
human CB1 receptor [1] = biological target: T1, human CB1 receptor (Homo sapiens, UniProt P21554); experiment: bioSensAll β-arrestin plasma membrane (PM) translocation BRET biosensor (+GRK2) assay in transfected HEK293 cells, inhibition of CP-55,940 response; assay type: cell-based; conditions: HEK293 cells transfected with hCB1 and β-arrestin PM translocation biosensor (+GRK2), test compound then EC75 of CP-55,940 (100 nM), overnight incubation, read-out: CB1 wt βarr2 EC50
T1 construct: expressed in transfected cells; host or cells: HEK293
Method: (§1) Using polyethylenimine (PEI) transfection agent, HEK293 cells were transfected in suspension with the human CB1 or CB1 b receptor and one of the following bioSensAll® assays: GAPL-Gi2, or β-arrestin plasma membrane (PM) translocation biosensor (+GRK2). Cells were directly seeded in 96-well plates immediately following transfection.
(§2) Cells were incubated with coelenterazine (luciferase substrate) and different test compounds prior to the measurement of BRET signals.
(§3) Used in this project are i) Ga plasma membrane (GAPL) biosensors and the ii) β-arrestin plasma membrane translocation biosensor. • i) GAPL sensors are used to monitor the activation of heterotrimeric G proteins at the plasma membrane upon receptor stimulation. Specifically, these multimolecular BRET sensors detect the plasma membrane recruitment of proteins that interact with active Ga subunits in a G protein family-selective manner. G protein activation following receptor stimulation generally leads to an increase in the BRET signal. • ii) The multimolecular β-arrestin membrane recruitment biosensors allow for real-time spatio-temporal monitoring of β-arrestin 1 and β-arrestin 2 following GPCR activation. Specifically, these β-arrestin sensors were designed to detect the recruitment of proteins to the plasma membrane β-arrestin PM) with localization to compartment resulting in an increased BRET signal. c) Cell Culture Conditions HEK293 cells were maintained in Dulbecco's Modified Eagle Medium (DMEM) (Wisent; cat #319-030-CL: without sodium pyruvate, with 4.5 g/L glucose, without L-glutamine) supplemented with 1% penicillin-streptomycin (Wisent; cat #450-201-EL) and 2 or 10% fetal bovine serum (Wisent cat #090150).
(§4) HEK293 cells were co-transfected with hCB1 or hCB1b and one of the above-listed bioSensAll® assays. For each transfection condition: • the total amount of transfected DNA was kept constant at 1 μg per mL of cell culture to be transfected; whenever necessary, salmon sperm DNA (Invitrogen, cat #15632011) was used as ‘carrier’ DNA to supplement plasmid DNA (i.e., biosensor and receptor); • the PEI (polyethylenimine 25 kDa linear, PolyScience, cat #23966) to DNA ratio (ug:ug) was fixed at 3:1. Transfections were Carried Out as Follows: • DNA and PEI were first diluted separately in 150 mM NaCl. The volume of the diluent in each tube corresponds to 5% of the cell culture volume to be transfected. • Once DNA and PEI were diluted, the PEI-containing solution was added to the DNA solution and the DNA/PEI mixture immediately vortexed for 5 seconds. • The DNA/PEI mixture was incubated for at least 20 minutes at room temperature to allow for the formation of DNA/PEI complexes. • During the incubation, HEK293 cells were detached, counted and re-suspended in culture medium (composition specified above). • At the end of the incubation period, the DNA/PEI mixture was added to the cells. • Cells were finally distributed in 96-well plates (White Opaque 96-well/Microplates, Greiner, cat #655083 or CulturPlate-96, White Opaque 96-well Microplate, PerkinElmer, cat #6005688) at a density of 30 000 cells per well.
(§5) • Using 450-Select TS Biotek plate washer, culture medium was aspirated and replaced with 100 μl of Hank's Balanced Salt Solution buffer (HBSS) (Wisent, cat #319-067CL: without red phenol; with sodium bicarbonate, with calcium and magnesium, with HEPES) per well. This process was performed a total of two times (i.e., 2 washes). • After the washing step, the HP D300 digital dispenser (Tecan) was used to inject increasing doses (12) of test compounds (ranging from 0-600 nM) to wells. […]

human CB1 receptor [2] = biological target: T1, human CB1 receptor; experiment: bioSensAll GAPL-Gi2 BRET biosensor assay in transfected HEK293 cells, inhibition of CP-55,940 response; assay type: cell-based; conditions: HEK293 cells transfected with hCB1 and GAPL-Gi2 biosensor, test compound then EC75 of CP-55,940 (0.1 nM), overnight incubation, read-out: CB1 wt Gi2 EC50
Method: as §1, §2, §3, §4, §5

T1 sequence (P21554 whole entry): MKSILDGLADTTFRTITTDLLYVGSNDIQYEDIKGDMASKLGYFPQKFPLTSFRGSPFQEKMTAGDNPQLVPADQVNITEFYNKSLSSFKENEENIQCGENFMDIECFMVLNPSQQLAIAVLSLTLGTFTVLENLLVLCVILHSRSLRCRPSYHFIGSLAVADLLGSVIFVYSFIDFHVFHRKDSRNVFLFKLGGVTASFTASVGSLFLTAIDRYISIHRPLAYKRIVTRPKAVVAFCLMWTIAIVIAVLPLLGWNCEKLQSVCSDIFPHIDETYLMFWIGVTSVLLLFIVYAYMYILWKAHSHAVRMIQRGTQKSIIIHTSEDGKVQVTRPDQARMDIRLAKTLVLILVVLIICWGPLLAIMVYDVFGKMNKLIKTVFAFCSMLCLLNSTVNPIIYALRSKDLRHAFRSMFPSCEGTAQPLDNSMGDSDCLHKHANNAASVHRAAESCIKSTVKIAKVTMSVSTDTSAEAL

| EC50 (human CB1 receptor [1]) [nM] | EC50 (human CB1 receptor [2]) [nM] | Compound |
| --- | --- | --- |
| > 30000 | 430 | CC(=O)NC(N)=NC(=NS(=O)(=O)c1ccc(Cl)cc1)N1CCC(c2ccccc2)C(c2ccc(Cl)cc2)=N1 (single isomer, unassigned) [Compound 1 Isomer 1, N-[(E)-N′-[(Z)-C-[6-(4-chlorophenyl)-5-phenyl-4,5-dihydro-3H-pyridazin-2-yl]-N-(4-chlorophenyl)sulfonylcarbonimidoyl]carbamimidoyl]acetamide] |
| 3.3 | 1.2 | CC(=O)NC(N)=NC(=NS(=O)(=O)c1ccc(Cl)cc1)N1CCC(c2ccccc2)C(c2ccc(Cl)cc2)=N1 (single isomer, unassigned) [Compound 1 Isomer 2, N-[(E)-N′-[(Z)-C-[6-(4-chlorophenyl)-5-phenyl-4,5-dihydro-3H-pyridazin-2-yl]-N-(4-chlorophenyl)sulfonylcarbonimidoyl]carbamimidoyl]acetamide] |
| 23600 | 300 | CC(=O)N/C(N)=N/C(=N/S(=O)(=O)N1CCCCC1)N1CCC(c2ccccc2)C(c2ccc(Cl)cc2)=N1 (single isomer, unassigned) [Compound 2 Isomer 1, N-[(E)-N′-[(Z)-C-[6-(4-chlorophenyl)-5-phenyl-4,5-dihydro-3H-pyridazin-2-yl]-N-(1-piperidylsulfonyl)carbonimidoyl]carbamimidoyl]acetamide] |
| 1.5 | 0.65 | CC(=O)N/C(N)=N/C(=N/S(=O)(=O)N1CCCCC1)N1CCC(c2ccccc2)C(c2ccc(Cl)cc2)=N1 (single isomer, unassigned) [Compound 2 Isomer 2, N-[(E)-N′-[(Z)-C-[6-(4-chlorophenyl)-5-phenyl-4,5-dihydro-3H-pyridazin-2-yl]-N-(1-piperidylsulfonyl)carbonimidoyl]carbamimidoyl]acetamide] |
| 14100 | 190 | CC(=O)N/C(N)=N/C(=N/S(=O)(=O)N1CCC(C(F)(F)F)CC1)N1CCC(c2ccccc2)C(c2ccc(Cl)cc2)=N1 (single isomer, unassigned) [Compound 3 Isomer 1, N-[(E)-N′-[(Z)-C-[6-(4-chlorophenyl)-5-phenyl-4,5-dihydro-3H-pyridazin-2-yl]-N-[[4-(trifluoromethyl)-1-piperidyl]sulfonyl]carbonimidoyl]carbamimidoyl]acetamide] |
| 1.3 | 0.64 | CC(=O)N/C(N)=N/C(=N/S(=O)(=O)N1CCC(C(F)(F)F)CC1)N1CCC(c2ccccc2)C(c2ccc(Cl)cc2)=N1 (single isomer, unassigned) [Compound 3 Isomer 2, N-[(E)-N′-[(Z)-C-[6-(4-chlorophenyl)-5-phenyl-4,5-dihydro-3H-pyridazin-2-yl]-N-[[4-(trifluoromethyl)-1-piperidyl]sulfonyl]carbonimidoyl]carbamimidoyl]acetamide] |
| > 30000 | > 30000 | CC(=O)N/C(N)=N/C(=N/S(=O)(=O)N1CCC(F)(F)CC1)N1CCC(c2ccccc2)C(c2ccc(Cl)cc2)=N1 (single isomer, unassigned) [Compound 4 Isomer 1, N-[(E)-N′-[(Z)-C-[6-(4-chlorophenyl)-5-phenyl-4,5-dihydro-3H-pyridazin-2-yl]-N-[(4,4-difluoro-1-piperidyl)sulfonyl]carbonimidoyl]carbamimidoyl]acetamide] |
| 1.4 | 0.67 | CC(=O)N/C(N)=N/C(=N/S(=O)(=O)N1CCC(F)(F)CC1)N1CCC(c2ccccc2)C(c2ccc(Cl)cc2)=N1 (single isomer, unassigned) [Compound 4 Isomer 2, N-[(E)-N′-[(Z)-C-[6-(4-chlorophenyl)-5-phenyl-4,5-dihydro-3H-pyridazin-2-yl]-N-[(4,4-difluoro-1-piperidyl)sulfonyl]carbonimidoyl]carbamimidoyl]acetamide] |
| 400 | 150 | CC(=O)N/C(N)=N/C(=N/S(=O)(=O)N1CCCC(F)(F)C1)N1CCC(c2ccccc2)C(c2ccc(Cl)cc2)=N1 (single isomer, unassigned) [Compound 5 Isomer 1, N-[(E)-N′-[(Z)-C-[6-(4-chlorophenyl)-5-phenyl-4,5-dihydro-3H-pyridazin-2-yl]-N-[(3,3-difluoro-1-piperidyl)sulfonyl]carbonimidoyl]carbamimidoyl]acetamide] |
| 0.72 | 0.43 | CC(=O)N/C(N)=N/C(=N/S(=O)(=O)N1CCCC(F)(F)C1)N1CCC(c2ccccc2)C(c2ccc(Cl)cc2)=N1 (single isomer, unassigned) [Compound 5 Isomer 2, N-[(E)-N′-[(Z)-C-[6-(4-chlorophenyl)-5-phenyl-4,5-dihydro-3H-pyridazin-2-yl]-N-[(3,3-difluoro-1-piperidyl)sulfonyl]carbonimidoyl]carbamimidoyl]acetamide] |
| 380 | 39 | CC(=O)NC(N)=NC(=NS(=O)(=O)c1cc(F)cc(F)c1)N1CCC(c2ccccc2)C(c2ccc(Cl)cc2)=N1 (single isomer, unassigned) [Compound 6 Isomer 1, N-[(E)-N′-[(Z)-C-[6-(4-chlorophenyl)-5-phenyl-4,5-dihydro-3H-pyridazin-2-yl]-N-(3,5-difluorophenyl)sulfonylcarbonimidoyl]carbamimidoyl]acetamide] |
| 2.6 | 0.68 | CC(=O)NC(N)=NC(=NS(=O)(=O)c1cc(F)cc(F)c1)N1CCC(c2ccccc2)C(c2ccc(Cl)cc2)=N1 (single isomer, unassigned) [Compound 6 Isomer 2, N-[(E)-N′-[(Z)-C-[6-(4-chlorophenyl)-5-phenyl-4,5-dihydro-3H-pyridazin-2-yl]-N-(3,5-difluorophenyl)sulfonylcarbonimidoyl]carbamimidoyl]acetamide] |
| 580 | 200 | CC(=O)N/C(N)=N\C(=N\S(=O)(=O)c1ccc(C(F)(F)F)cc1)N1CCC(c2ccccc2)C(c2ccc(Cl)cc2)=N1 (single isomer, unassigned) [Compound 7 Isomer 1, N-[(E)-N′-[(Z)-C-[6-(4-chlorophenyl)-5-phenyl-4,5-dihydro-3H-pyridazin-2-yl]-N-[4-(trifluoromethyl)phenyl]sulfonyl-carbonimidoyl]carbamimidoyl]acetamide] |
| 2.1 | 0.42 | CC(=O)N/C(N)=N\C(=N\S(=O)(=O)c1ccc(C(F)(F)F)cc1)N1CCC(c2ccccc2)C(c2ccc(Cl)cc2)=N1 (single isomer, unassigned) [Compound 7 Isomer 2, N-[(E)-N′-[(Z)-C-[6-(4-chlorophenyl)-5-phenyl-4,5-dihydro-3H-pyridazin-2-yl]-N-[4-(trifluoromethyl)phenyl]sulfonyl-carbonimidoyl]carbamimidoyl]acetamide] |
| > 30000 | > 30000 | CC(=O)NC(=N)/N=C(/NS(=O)(=O)c1ccc(C(F)(F)F)cn1)N1CCC(c2ccccc2)C(c2ccc(Cl)cc2)=N1 (single isomer, unassigned) [Compound 8 Isomer 1, N-[(NE)-N-[[6-(4-chlorophenyl)-5-phenyl-4,5-dihydro-3H-pyridazin-2-yl]-[[5-(trifluoromethyl)-2-pyridyl]sulfonylamino]methylene]carbamimidoyl]acetamide] |
| 8.5 | 1.9 | CC(=O)NC(=N)/N=C(/NS(=O)(=O)c1ccc(C(F)(F)F)cn1)N1CCC(c2ccccc2)C(c2ccc(Cl)cc2)=N1 (single isomer, unassigned) [Compound 8 Isomer 2, N-[(NE)-N-[[6-(4-chlorophenyl)-5-phenyl-4,5-dihydro-3H-pyridazin-2-yl]-[[5-(trifluoromethyl)-2-pyridyl]sulfonylamino]methylene]carbamimidoyl]acetamide] |
